Data: patent publication US4338433A, “Moranoline derivatives and process for preparation thereof” (Nippon Shinyaku Co. Ltd., priority 1979, dated 1982)

How the values were obtained:
[1] = biological target: T1, α-1,4-glucanglucohydrolase (glucoamylase) (Rhizopus arrhizus, UniProt P07683); experiment: Inhibition of α-1,4-glucanglucohydrolase (glucoamylase), soluble starch substrate; type: biochemical; conditions: read-out: percent inhibition at parenthesized concentration; for inhibition at 200 µg/mL: at 200 μg/ml (printed >200 μg/ml)
T1 sequence (P07683 26-604): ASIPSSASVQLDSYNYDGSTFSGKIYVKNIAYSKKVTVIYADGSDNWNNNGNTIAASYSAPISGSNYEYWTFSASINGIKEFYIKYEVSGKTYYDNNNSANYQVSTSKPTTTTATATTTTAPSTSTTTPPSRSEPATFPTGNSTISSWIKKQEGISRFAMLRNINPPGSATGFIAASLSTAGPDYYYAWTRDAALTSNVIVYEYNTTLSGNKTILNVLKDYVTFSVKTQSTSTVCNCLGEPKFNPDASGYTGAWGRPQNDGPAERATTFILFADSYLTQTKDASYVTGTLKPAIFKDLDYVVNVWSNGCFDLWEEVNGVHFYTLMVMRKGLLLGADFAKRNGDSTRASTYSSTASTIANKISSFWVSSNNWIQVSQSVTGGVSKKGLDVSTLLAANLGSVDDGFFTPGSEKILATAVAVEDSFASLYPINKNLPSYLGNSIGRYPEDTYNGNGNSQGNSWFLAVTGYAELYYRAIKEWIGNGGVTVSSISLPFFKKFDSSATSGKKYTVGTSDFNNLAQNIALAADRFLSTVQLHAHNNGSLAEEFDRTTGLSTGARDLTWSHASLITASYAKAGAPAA
Method: Moranoline, N-lower-alkylmoranolines, oligoglycosylmoranolines and N-lower-alkyloligoglucosylmoranolines inhibit the activity of α-1,4-glucanglucohydrolase. The inhibition is determined according to the following method.
Glucoamylase (crystal) derived from Rhizopus nivens (supplied by Seikagaku Kogyo K. K.) is dissolved in distilled water so that the concentration is 50 μg/ml and the enzyme is used in the form of the so obtained solution.
Soluble starch is dissolved in a buffer solution at a high temperature so that the concentration is 1.4%, and the solution is cooled to room temperature and used.
0.1 M phosphate buffer solution (pH=5.7)
The starting liquid is incubated at 40° C. for 10 minutes, and 1 ml of a 0.3 N solution of Ba(OH)2 and 1 ml of a 5% solution of ZnSO4 are added. Centifugal separation is conducted under a load of 2000×g for 10 minutes, and 30 μl of the supernatant is sampled and 3 ml of a glucose color reagent (supplied by Boelunger Mannheim Co.; new blood sugar test) was added to the supernatant. The mixture was allowed to stand at room temperature for 35 minutes and the absorbance at 420 nm is measured. The percent inhibition is calculated according to the following formula: [formula] wherein C stands for the absorbance of the control, T stands for the absorbance of the test sample, B' stands for the absorbance of the blank (I), and B stands for the absorbance of the blank (II).
The percent inhibition is also determined in respect of dilutions, and the concentration (IC50) providing 50% inhibition is found. In Table 4, the percent inhibition obtained at a parenthesized concentration is shown when the inhibition is low.

[2] = system: blood sugar levels; experiment: Effect of controlling increase of blood sugar levels in sucrose-loaded rats; type: in vivo, rats of the SD series; conditions: Rattus norvegicus, po, 3 h; 2 g/Kg sucrose and 5 mg/Kg test compound orally; ΔAUC over 180 minutes; male SD rats; read-out: Blood Level Increase Inhibition Ratio (%)
Method: [Effect of Controlling Increase of Blood Sugar Levels]
Five-week-old male rats of the SD series are divided into groups, each consisting of 4 rats, and 2 g/Kg of sucrose and 5 mg/Kg of the test compound are orally administered. Blood is collected from the tail veins at predetermined intervals over a period of 180 minutes from the point of administration and the blood level values are measured. The area (ΔAUC) below the time-blood level increase curve is determined. The blood level increase inhibition ratio of the test compound is calculated from the basal value obtained in the group to which water alone has been administered and the control value obtained in the group to which sucrose alone has been administered according to the following formula: [formula]

[3] = biological target: T2, α-1,4-glucanglucohydrolase (Rhizopus arrhizus, UniProt P07683); experiment: Decomposition of the substance by α-1,4-glucanglucohydrolase (glucose release); type: biochemical
T2 sequence (P07683 26-604): T1 sequence (P07683 26-604)
Excerpt: Practically, reactions of the respective stages are advanced on a mixture of compounds differing in the glucose number (m). Accordingly, in order to accumulate intended G-MR in the liquid reaction mixture, it is indispensable that rate constants should be sufficiently high but the rate constant k1 should be sufficiently low. FIG. 4 clarifies this point. FIG. 4 will now be explained. A predetermined amount of N-methyloligoglycosylmoranoline is adsorbed on 1 g of Dowex 50W×2 (H^+) in an Erlenmeyer flask having a capacity of 125 ml, and they are suspended in 50 ml of distilled water and 10 mg of α-1,4-glucanglucohydrolase is added to the suspension. Incubation is carried out at 40° C., and 500 μl of the liquid is sampled at predetermined intervals and the amount of glucose is determined. When maltose is used as the substrate, it is mixed with 1 g of Dowex 50W×2 (H^+) and in this state, incubation is carried out at 40° C.
1 ml of 0.3 N Ba(OH)2 and 1 ml of 5% ZnSO4 are added to 500 μl of the reaction mixture liquid and centifugal separation is carried out under a load of 2000 g for 10 minutes. 30 μl of the supernatant is taken and 3 ml of a commercially available glucose color reagent (manufactured by Boehunger Mannheim Co.; new blood sugar test) is added to the sampled supernatant. The mixture is sufficiently stirred and allowed to stand at room temperature for 35 minutes and the absorbance at 420 nm is measured. Separately, a glucose reference reagent (9.1 mg/dl) is similarly treated and the absorbance at 420 nm is measured. Based on these measurements, the amount of glucose formed in the reaction mixture liquid is determined.
About 22 units/mg of α-1,4-glucanglucohydrolase (crystal) derived from Rhizopus niveus (supplied by Seikagaku Kogyo K.K.)
The reaction time is plotted on the abscissa and the ratio of decomposition based on complete decomposition of glucose is plotted on the ordinate. […] After determination of the amount of glucose, the reaction liquid is filtered and the ion exchange resin (Dowex 50W×2) is collected, washed with water sufficiently and eluted with 0.5 N aqueous ammonia. The eluate is concentrated under reduced pressure and dried to the solid. The solid is dissolved in distilled water and subjected to high speed liquid chromatography (Model ALC/GPC-244 supplied by Waters Co., μ-Bondapak NH2 column, acetonitrile/water=70/30, 1.5 cc/min), and the reaction product is identified by a chromatopac Model C-R1A supplied by Shimadzu Seisakusho K. K. The ratios of formation of N-methylmoranoline are […] in case of 4-(α-D-glucosyl)-N-methylmoranoline, 4-(α-D-amltosyl)-N-methylmoranoline, 4-(α-D-maltotriosyl)-N-methylmoranoline and 4-(α-D-maltotetraosyl)-N-methylmoranoline, respectively. […]

| Compound | inhibition in vivo at 5 mg/kg [2] [%] | further results |
| --- | --- | --- |
| OC[C@H]1NC[C@H](O)[C@@H](O)[C@@H]1O[C@H]1O[C@H](CO)[C@@H](O[C@H]2O[C@H](CO)[C@@H](O[C@H]3O[C@H](CO)[C@@H](O)[C@H](O)[C@H]3O)[C@H](O)[C@H]2O)[C@H](O)[C@H]1O [4-(α-D-maltotriosyl)-moranoline] | 31 | inhibition at 200 µg/mL [1]: 0% |
| CN1C[C@H](O)[C@@H](O)[C@H](O[C@H]2O[C@H](CO)[C@@H](O)[C@H](O)[C@H]2O)[C@H]1CO [4-(α-D-glucosyl)-N-methylmoranoline] | 56 | decomposition by α-1,4-glucanglucohydrolase (in words) ([3]; qualitative statement, FIG. 4): extremely small |
| CN1C[C@H](O)[C@@H](O)[C@H](O[C@H]2O[C@H](CO)[C@@H](O[C@H]3O[C@H](CO)[C@@H](O[C@H]4O[C@H](CO)[C@@H](O[C@H]5O[C@H](CO)[C@@H](O[C@H]6O[C@H](CO)[C@@H](O)[C@H](O)[C@H]6O)[C@H](O)[C@H]5O)[C@H](O)[C@H]4O)[C@H](O)[C@H]3O)[C@H](O)[C@H]2O)[C@H]1CO [4-(α-D-maltopentaosyl)-N-methylmoranoline] | 23 |  |
| CCCN1C[C@H](O)[C@@H](O)[C@H](O[C@H]2O[C@H](CO)[C@@H](O)[C@H](O)[C@H]2O)[C@H]1CO [4-(α-D-glucosyl)-N-propylmoranoline] | 24 |  |
| OC[C@H]1NC[C@H](O)[C@@H](O)[C@@H]1O[C@H]1O[C@H](CO)[C@@H](O[C@H]2O[C@H](CO)[C@@H](O[C@H]3O[C@H](CO)[C@@H](O[C@H]4O[C@H](CO)[C@@H](O)[C@H](O)[C@H]4O)[C@H](O)[C@H]3O)[C@H](O)[C@H]2O)[C@H](O)[C@H]1O [4-(α-D-maltotetraosyl)-moranoline] | 56 | inhibition at 200 µg/mL [1]: 0% |
| OC[C@H]1NC[C@H](O)[C@@H](O)[C@@H]1O[C@H]1O[C@H](CO)[C@@H](O)[C@H](O)[C@H]1O [4-(α-D-glucosyl)-moranoline] | 44 | inhibition at 200 µg/mL [1]: 15%; decomposition by α-1,4-glucanglucohydrolase (in words) ([3]; qualitative statement, FIG. 4): hardly decomposed |
| OC[C@H]1NC[C@H](O)[C@@H](O)[C@@H]1O [moranoline, Moranoline] | 19 |  |
| OC[C@H]1O[C@H](O[C@H]2[C@H](O)[C@@H](O)C(O)O[C@@H]2CO)[C@H](O)[C@@H](O)[C@@H]1O (stereo partly shown) [maltose, reference compound] |  | decomposition by α-1,4-glucanglucohydrolase (in words) ([3]; in 1 hour, 40° C., mixed with Dowex 50W×2 (H+)): decomposed substantially completely; decomposition by α-1,4-glucanglucohydrolase (in words) ([3]; qualitative statement, FIG. 4): promptly decomposed to glucose |
| OC[C@H]1NC[C@H](O)[C@@H](O)[C@@H]1O[C@H]1O[C@H](CO)[C@@H](O[C@H]2O[C@H](CO)[C@@H](O)[C@H](O)[C@H]2O)[C@H](O)[C@H]1O [4-(α-D-maltosyl)-moranoline] | 35 | inhibition at 200 µg/mL [1]: 0% |
| CN1C[C@H](O)[C@@H](O)[C@H](O[C@H]2O[C@H](CO)[C@@H](O[C@H]3O[C@H](CO)[C@@H](O[C@H]4O[C@H](CO)[C@@H](O[C@H]5O[C@H](CO)[C@@H](O)[C@H](O)[C@H]5O)[C@H](O)[C@H]4O)[C@H](O)[C@H]3O)[C@H](O)[C@H]2O)[C@H]1CO [4-(α-D-maltotetraosyl)-N-methylmoranoline] | 25 |  |
| CN1C[C@H](O)[C@@H](O)[C@H](O[C@H]2O[C@H](CO)[C@@H](O[C@H]3O[C@H](CO)[C@@H](O)[C@H](O)[C@H]3O)[C@H](O)[C@H]2O)[C@H]1CO [4-(α-D-maltosyl)-N-methylmoranoline] | 62 |  |
| CCN1C[C@H](O)[C@@H](O)[C@H](O[C@H]2O[C@H](CO)[C@@H](O[C@H]3O[C@H](CO)[C@@H](O)[C@H](O)[C@H]3O)[C@H](O)[C@H]2O)[C@H]1CO [4-(α-D-maltosyl)-N-ethylmoranoline] | 35 |  |
| CN1C[C@H](O)[C@@H](O)[C@H](O[C@H]2O[C@H](CO)[C@@H](O[C@H]3O[C@H](CO)[C@@H](O[C@H]4O[C@H](CO)[C@@H](O)[C@H](O)[C@H]4O)[C@H](O)[C@H]3O)[C@H](O)[C@H]2O)[C@H]1CO [4-(α-D-maltotriosyl)-N-methylmoranoline] | 29 |  |
| CCN1C[C@H](O)[C@@H](O)[C@H](O[C@H]2O[C@H](CO)[C@@H](O)[C@H](O)[C@H]2O)[C@H]1CO [4-(α-D-glucosyl)-N-ethylmoranoline] | 22 | inhibition at 800 µg/mL ([1]; at 800 μg/ml (printed >800 μg/ml)): 38% |
